# Laboratory results as given in patent US20260248781A1, “SOLUBLE GUANYLATE CYCLASE ACTIVATORS FOR USE IN THE TREATMENT OF HEART FAILURE WITH PRESERVED EJECTION FRACTION IN WOMEN” (BAYER AKTIENGESELLSCHAFT, priority 2022, published 2026).
# “And” between values parts separate entries of the source, which are not always exact repeats. Equal values may be shown once.
# Assays:
# Type in all cases: in vivo
# [1] = tested on: RenTG/L-NAME-supplemented male rats; assay: RenTG rat model: survival rate assessment in male rats (B-1.1); settings: for mortality: placebo 58%
# Protocol: (§1) Male and female rennin-transgenic rats [TG(mRRen2)27] (RenTG rats) at the age of 8 weeks were used. Rats were randomized in groups with 12-24 rats/group. All groups were then chronically supplemented with L-NAME administrated via drinking water (30-50 mg/l). The L-NAME was dissolved in tap water and stored by room temperature. All groups were treated via oral gavage with either placebo/vehicle consisting of 10% transcutol, 20% cremophor and 70% tap water or different doses of the respective verum. The verum was dissolved in the vehicle and prepared freshly before administration. Study duration with concomitant L-NAME administration and treatment was up to 12 weeks. The baseline blood pressure was measured via tail-cuff method before the start of the treatment and after different time points during the study. Mortality and body weight were assessed on a daily basis. Urine samples were collected via the use of metabolic cages and urine was collected over a period of six hours to quantify proteinuria as correlate of kidney function and different urinary biomarkers for kidney and organ damage. At the end of the study all animals were kept in depth narcotic and bled via aortic puncture and sacrificed by permanent inhaled isoflurane, blood was taken in order to assess plasma parameters, and heart and kidney were weighed and harvested for histopathological evaluation.
# The survival rate in % of the RenTG/L-NAME-supplemented male rats treated with either placebo, or 1, 3 and 10 mg/kg runcaciguat (example 1) BID was investigated (see table 1).
# [2] = tested on: RenTG/L-NAME-supplemented male rats; assay: RenTG rat model: kidney function by proteinuria (uPCR) in male rats (B-1.2); settings: for uPCR % (normalized to placebo): placebo set as 100%
# Protocol: as §1
# Urinary protein to creatinine ratio in the RenTG/L-NAME-supplemented male rats treated with either placebo (set as 100%) or with 1, 3 and 10 mg/kg example 1 (runcaciguat) BID was investigated (see table is 2).
# [3] = tested on: RenTG/L-NAME-supplemented female rats; assay: RenTG rat model: survival rate assessment in female rats (B-1.3); settings: 3 mg/kg BID, placebo 64.3%
# Protocol: as §1, with “evaluation. […]” for “evaluation.”
# [4] = tested on: RenTG/L-NAME-supplemented female rats; assay: RenTG rat model: kidney function by proteinuria (uPCR) in female rats (B-1.4); settings: 3 mg/kg BID; for uPCR % (normalized to placebo): placebo set as 100%
# Protocol: as §1
# Urinary protein to creatinine ratio in the RenTG/L-NAME-supplemented female rats treated with either placebo (set as 100%) or 3 mg/kg example 1 BID or example 3 BID respectively. Data are mean±SEM.
# [5] = tested on: RenTG/L-NAME-supplemented male, female and female OVX rats; assay: RenTG rat model: survival rate in male, female and female ovariectomized (OVX) rats, head-to-head, OD dosing (B-1.5); settings: for % survival: 3 mg/kg OD
# Protocol: as §1
# In male rat 93% of rats survived whereas in female rats all the rats survived in the sGC activator treatment arm (100%). There was no difference in survival rates in female OVX rats compared to non-OVX rats.
# [6] = tested on: RenTG/L-NAME-supplemented male, female and female OVX rats; assay: RenTG rat model: proteinuria (uPCR) in male, female and female OVX rats, OD dosing (B-1.6); settings: for Urinary protein to creatinine ratio: 3 mg/kg OD, placebo 100; for reduction of proteinuria: OD
# Protocol: as §1
# The most striking differences between male and female were seen on proteinuria. […] In female rats these effects were much more pronounced, and proteinuria was reduced by 88% and by 99% in female rats without OVX and with OVX, respectively.
structure (smiles),measurement,setting,value
"C[C@H]([C@H](C(=O)Nc1cc([C@@H](CC(=O)O)C2CC2)ccc1Cl)c1ccc(Cl)cc1)C(F)(F)F [Example 1, (3S)-3-(4-chloro-3-{[(2S,3R)-2-(4-chlorophenyl)-4,4,4-trifluoro-3-methylbutanoyl]amino}phenyl)-3-cyclopropylpropanoic acid]",lower survival of male compared to female rats,"[1]; 3 mg/kg BID, male rats at the point of 64% control survival vs female rats",30%
same,% survival,"[1]; male rats, 1 mg/kg BID p.o.",44%
same,mortality,"[1]; male rats, 1 mg/kg BID p.o.",56%
same,survival rate at the point when 64% of the male control animals were still alive,"[1]; male rats, 3 mg/kg BID",70%
same,statistical evaluation of mortality reduction,"[1]; male rats, 3 mg/kg BID p.o.",strong numerical trend
same,% survival,"[1]; male rats, 3 mg/kg BID p.o., 3 mg/kg",60% and 61%
same,mortality,"[1]; male rats, 3 mg/kg BID p.o.",39%
same,% survival,"[1]; male rats, 10 mg/kg BID p.o.",72%
same,statistical evaluation of mortality reduction,"[1]; male rats, 10 mg/kg BID p.o.",reached statistical significance
same,mortality,"[1]; male rats, 10 mg/kg BID p.o.",28%
same,effect on survival rates,"[1]; male rats, 1, 3 and 10 mg/kg BID p.o.",dose-dependently increased the survival rates
same,reduction of proteinuria,[2]; 1 mg/kg BID,15%
same,uPCR % (normalized to placebo),[2]; 1 mg/kg BID,85.4%
same,reduction of proteinuria,[2]; 3 mg/kg BID,29%
same,statistical evaluation of proteinuria reduction,[2]; 3 mg/kg BID,statistically significant
same,uPCR % (normalized to placebo),[2]; 3 mg/kg BID,71.1%
same,reduction of proteinuria,[2]; 10 mg/kg BID,39%
same,statistical evaluation of proteinuria reduction,[2]; 10 mg/kg BID,statistically significant
same,uPCR % (normalized to placebo),[2]; 10 mg/kg BID,60.6%
same,% survival,[3],100%
same,reduction of proteinuria,[4],55%
same,uPCR % (normalized to placebo),[4],44.5%
"CC(C)CN1CCN(c2ccc(-c3ccc(Cl)cc3N3CCC[C@@H](n4ncc(C(=O)O)c4C(F)F)C3)cc2)CC1 [Example 3, 1-{3(R)-1-[4-Chloro-4′-(4-isobutylpiperazin-1-yl)[biphenyl]-2-yl]piperidin-3-yl}-5-(difluoromethyl)-1H-pyrazole-4-carboxylic acid]",% survival,[3]; 3 mg/kg,"92,3%"
same,reduction of proteinuria,[4],84%
same,uPCR % (normalized to placebo),[4],16.4%
same,% survival,"[5]; female OVX rats, placebo 40%",100%
same,% survival,"[5]; female rats, placebo 47%",100%
same,% survival,"[5]; male rats, placebo 60%",93%
same,survival rate in male rats lower than in female rats,[5]; once daily dosing (OD),7%
same,survival rates in female OVX rats compared to non-OVX rats,[5]; once daily dosing (OD),no difference
same,Urinary protein to creatinine ratio,[6]; female OVX rats,1
same,reduction of proteinuria,[6]; female rats with OVX,99%
same,reduction of proteinuria,[6]; female rats without OVX,88%
same,Urinary protein to creatinine ratio,[6]; female rats,12
same,Urinary protein to creatinine ratio,[6]; male rats,43
same,reduction of proteinuria,[6]; male rats,57%
